The record followed here is paper PMC11305387, “AlphaFold accelerated discovery of psychotropic agonists targeting the trace amine–associated receptor 1” (Science Advances, 2024).

Values joined by “and” are separate entries in the source; they are usually repeats but may differ in a detail not shown here. Equal entries are not always repeated. Where two headings read alike, the source gives them in different places.

The target of test [1] is T1, hTAAR1 (Homo sapiens, UniProt Q96RJ0).
T1 construct: expressed in transfected cells; host or cells: Expi293F
T1 sequence (Q96RJ0 1-339): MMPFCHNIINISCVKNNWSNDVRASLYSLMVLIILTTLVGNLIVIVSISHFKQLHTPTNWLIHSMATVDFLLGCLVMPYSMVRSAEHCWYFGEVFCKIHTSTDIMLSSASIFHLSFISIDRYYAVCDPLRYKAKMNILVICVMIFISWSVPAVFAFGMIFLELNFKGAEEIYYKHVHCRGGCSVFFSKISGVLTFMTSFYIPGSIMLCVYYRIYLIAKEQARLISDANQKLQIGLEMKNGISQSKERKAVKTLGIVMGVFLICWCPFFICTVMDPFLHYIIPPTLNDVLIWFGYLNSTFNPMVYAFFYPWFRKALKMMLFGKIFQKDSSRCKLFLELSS
Description: G protein (mini-Gs) recruitment luminescence complementation assay, agonist mode. The class given is cell-based. The method, then: The 62 predicted ligands were purchased from commercial vendors and tested for activity at a concentration of 20 μM in a luminescence complementation–based assay measuring recruitment of mini-Gs to the human TAAR1 ([38]).
To monitor TAAR1 activation by compounds, we used our previously described system. […] Cells were then reseeded in solid white, 96-well plates (Corning) with 90 μl of cell suspension per well. Luminescence was read using a plate reader for 5 min (SPARK 10 M, Tecan) before the addition of compounds to ensure signal stability. Ten microliters of each compound diluted in DPBS was added, and luminescence from each well was read for 10 min, with 100-ms read time per well. The A2AR counter-screen was performed using the same protocol. In these experiments, the hTAAR1 was replaced by a C-terminally SmBiT-tagged hA2AR construct.

Test [2] relates to TAAR1-WT and TAAR1-KO mice. Put plainly: Core-body temperature (CBT) measurement. The class given is in vivo. The note with it: TAAR1-KO mice, 1 mg/kg (fig. S13A). Here is the method: Core temperature was determined by a rectal thermoprobe. Compounds or vehicle was administered intraperitoneally. A basal measurement was performed immediately before injection. Measurements were repeated every 30 min for 2 hours. Mean changes in CBT were calculated by subtracting the value from vehicle treated group at the corresponding time point. A washout of 1 week between different doses of compound 65 was applied, and mice were injected starting with the lowest dose first.

Where [3] appears, read: Tables S3A/S3B, compounds tested at 20 μM, relative to the maximal effect of β-PEA (20 µM).
The mark [4] stands for this setting: TAAR1, G protein recruitment assay, read-out: pEC50 (converted).
Where [5] appears, read: relative to the effect of the reference agonist β-PEA, read-out: Emax.

`NC1CSc2ccc(Br)cc21` (stereo not drawn) [Compound 9]: in test [1] (setting [3]), the Emax (as a rule, the maximal effect, on the per cent scale that the assay sets) amounted to 19.1%.
Still for that read-out and setting: then `CNC(C)c1nc2ccccc2s1` (stereo not drawn) [Compound 6], with 8.8%.
As to `Brc1cccc2c1CNCC2` [Compound 62], the EC50 in test [1] (setting [4]) is 0.316 µM. The Emax in test [1] (setting [5]) is 107%.
In the case of `Br.NCc1cccc2c(O)cccc12` [Compound 8], the maximal effect (Emax) in test [1] (setting [3]) was 14.9%.
On to `c1ccc2cc(CNC3CC3)ccc2c1` [Compound 56], for which, in test [1] (setting [4]), the EC50 was 12.6 µM. In addition, the Emax in test [1] (setting [5]) is 63%.
`NCc1noc2ccc(F)cc12` [Compound 13]: the EC50 in test [1] (setting [4]) was 3.16 µM. Also, the Emax in test [1] (setting [5]) amounted to 51.8%.
`Cc1c(C(C)N)sc2ccccc12.Cl` (stereo not drawn) [Compound 5]: the Emax in test [1] (setting [3]) is on record as 8.5%.
On to `CCNCc1cccc2ccoc12` [Compound 60], for which the EC50 in test [1] (setting [4]) is 3.16 µM. Besides, the Emax in test [1] (setting [5]) was determined as 79.9%.
Turning to `NC[C@H]1Cc2cc(Br)ccc2O1` [Compound 17], the EC50 in test [1] (setting [4]) was 6.31 µM. Besides, in test [1] (setting [5]), the Emax was determined as 67.8%.
For `COc1cccc(C2=CCNC2)c1` [Compound 24], the EC50 in test [1] (setting [4]) was 1.58 µM. Further, the Emax at 20 µM in test [1] (setting [3]) was determined as 81.8%. Besides, the Emax in test [1] (setting [5]) amounted to 81.4%.
For `C1=C(c2ccccc2)CNCC1` [Compound 67], the EC50 in test [1] (pEC50, TAAR1, G protein recruitment assay) is 0.0251 µM.
Consider `NCc1nsc2ccccc12` [Compound 23], for which, in test [1] (setting [4]), the EC50 was 3.98 µM. The Emax in test [1] (setting [5]) was 79.2%.
On to `Cn1cc(C2=CCCNC2)cn1` [Compound 66], for which, in test [1] (setting [4]), the EC50 was 2 µM.
`CCCN(CCC)C1CCc2cccc(O)c2C1` (stereo not drawn) [Compound 8-OH-DPAT, 8-hydroxy-2-(di-n-propylamino)tetralin, reference compound]: the CBT responsiveness result in test [2] is listed as “validated the responsiveness of TAAR1-KO mice”.
For the molecule `CC1=C(c2ccncc2)CNCC1` [Compound 77], the EC50 in test [1] (setting [4]) is 7.94 µM.
With `Cc1nc(C(N)C(C)O)cs1.Cl.Cl` (stereo not drawn) [Compound 3], the Emax in test [1] (setting [3]) amounted to 2.3%.
On to `CC(CNCc1ncc[nH]1)c1ccncc1` (stereo not drawn) [Compound 36], for which the Emax in test [1] (setting [3]) is recorded as 1.3%.
The molecule `CN[C@@H](C)CNc1ncnc2sc(C)cc12` [Compound 46] yielded an Emax in test [1] (setting [3]) of 18.8%.
Turning to `CC1=C(c2cc[nH]n2)CNCC1` [Compound 71], the EC50 in test [1] (setting [4]) is 1.58 µM and 0.631 µM.
As to `CC(NCCO)c1cccc2c1OCO2` (stereo not drawn) [Compound 38], in test [1] (setting [3]), the Emax was 3.5%.
Still for that read-out and setting: then `CCNCc1nc(-c2cccs2)cs1` [Compound 39], with 3.9%; and `CNCc1cc2sccc2n1C` [Compound 11], with 40.4%.
Turning to `Brc1csc2c1CNCC2` [Compound 29], in test [1] (setting [4]), the EC50 is 0.158 µM. In addition, in test [1] (setting [5]), the Emax was determined as 106%.
Molecule `CCN1CCCC(c2ccccc2)C1` (stereo not drawn) [Compound 52] showed an Emax in test [1] (setting [3]) of 44.5%.
For `c1ccc2c(c1)C[C@H]2CNCc1c[nH]cn1` [Compound 61], the EC50 in test [1] (setting [4]) was 5.01 µM. The maximal response (Emax) in test [1] (setting [5]) was found to be 80.3%.
Molecule `NCCc1ccccc1` [β-PEA, β-phenethylamine, reference compound] had an Emax in test [1] of 100%. For the same molecule, the EC50 in test [1] (setting [4]) was 0.251 µM.
As to `C[C@@H](N)c1cc2ccccc2o1` [Compound 16], the EC50 in test [1] (setting [4]) is 1.58 µM. The Emax in test [1] (setting [5]) stood at 61.9%.
In the same order, the values of `C[C@H](N)c1csc2ccccc12` [Compound 15] are 6.31 µM and 57.5%.
On to `CC[C@@H](CNCC1=CCCOC1)c1ccccc1` [Compound 58], for which the EC50 in test [1] (setting [4]) is 7.94 µM. Also, the Emax in test [1] (relative to the effect of the reference agonist β-PEA) is on record as 78.4%.
Take `CN[C@H]1CCc2ccccc2C1` [Compound 19]: in test [1] (setting [4]), the EC50 was 3.98 µM. The Emax at 20 µM in test [1] (setting [3]) stood at 72.8%. For the same molecule, the Emax in test [1] (setting [5]) worked out at 74.5%.
In the case of `C[C@@H](NCC1CC1)c1coc2ccccc12` [Compound 35], the Emax in test [1] (setting [3]) stood at 0.9%.
`Cc1cc2c(CCN)csc2s1` [Compound 21]: the EC50 in test [1] (setting [4]) is 3.16 µM. This molecule also had an Emax at 20 µM in test [1] (setting [3]) of 75.3%. Moreover, the Emax in test [1] (setting [5]) is 75.2%.
Turning to `C[C@H](N)c1coc2ccccc12` [Compound 14], the EC50 in test [1] (setting [4]) was 7.94 µM. Besides, the Emax in test [1] (setting [5]) was 54.3%.
In the same order, the values of `Cc1ccc2c(c1Br)CNC2` [Compound 28] are 0.398 µM and 103%.
`CCNCc1cncc2ccccc12` [Compound 59]: in test [1] (setting [4]), the EC50 is 6.31 µM. Besides, the Emax in test [1] (setting [5]) stood at 78.8%.
On to `CNCc1cccc2cccnc12` [Compound 22], for which, in test [1] (setting [4]), the EC50 was 3.16 µM. In addition, the Emax in test [1] (setting [5]) was found to be 78.5%.
In turn, `Cl.Cl.c1cnc2c(c1)CNC2` [Compound 4] displayed an Emax in test [1] (setting [3]) of 4.4%.
Regarding `CN1CCC(c2c[nH]c3ccccc23)C1` (stereo not drawn) [Compound 49], the Emax in test [1] (setting [3]) was found to be 27.1%.
On to `c1csc([C@H]2CCCNC2)n1` [Compound 25], for which, in test [1] (setting [4]), the EC50 is 1 µM. In test [1] (setting [5]), the Emax worked out at 95.3%.
As to `CC1=C(c2ncco2)CNCC1` [Compound 74], in test [1] (setting [4]), the EC50 was 0.631 µM.
Turning to `OC(CNC[C@@H]1Cc2ccccc2CO1)C1CC1` (stereo partly drawn) [Compound 44], in test [1] (setting [3]), the Emax turned out to be 10.0%.
As for `Cc1ccc([C@@H]2CNCCO2)o1` [Compound 27], in test [1] (setting [4]), the EC50 is 0.251 µM. In addition, in test [1] (setting [5]), the Emax amounted to 98.7%.
In test [1] (setting [3]), `c1ccc2c(c1)COC2CNCc1ccn[nH]1` (stereo not drawn) [Compound 47] returned an Emax of 21.0%.
Turning to `CCNCc1cccc2c1OCO2` [Compound 57], in test [1] (setting [4]), the EC50 was 5.01 µM. Also, the Emax in test [1] (setting [5]) was determined as 73.2%.
Take `CC1=C(c2cccnn2)CNCC1` [Compound 76]: in test [1] (setting [4]), the EC50 is 50.1 µM and ~50.1 µM.
`NC[C@H]1OCCc2sc(F)cc21` [Compound 26]: the EC50 in test [1] (setting [4]) is 1 µM. The Emax in test [1] (setting [5]) was determined as 95.5%.
With `CN1CCC(c2ccc(Br)cc2)C1` (stereo not drawn) [Compound 33], in test [1] (setting [3]), the Emax turned out to be 0.6%.
`Cc1ccc(-c2cccc3c2CNCC3)o1` [Compound 18]: the EC50 in test [1] (setting [4]) was 0.631 µM. The Emax in test [1] (setting [5]) is 68.7%.
For the molecule `COc1cccnc1C1=C(C)CCNC1` [Compound 69], the EC50 in test [1] (setting [4]) is 3.16 µM.
For the molecule `CC(N)c1cc2ccccc2s1` (stereo not drawn) [Compound 7], in test [1] (setting [3]), the Emax is 14.7%.
Turning to `Cc1cccc(C2CCCN2)c1` (stereo not drawn) [Compound 2], the Emax in test [1] (setting [3]) worked out at 1.3%.
Turning to `N[C@H]1COc2cccc(Br)c2C1` [Compound 20], the EC50 in test [1] (setting [4]) is 3.98 µM. Further, the Emax in test [1] (setting [5]) is 74.5%.
Take `CC1=C(c2ccccn2)CNCC1` [Compound 75]: the EC50 in test [1] (setting [4]) was 0.501 µM.
In the case of `c1coc(C2CNCCO2)c1` (stereo not drawn) [Compound 64], the EC50 in test [1] (setting [4]) is 0.398 µM. For the same molecule, in test [1] (TAAR1 G protein recruitment), the “fold reduction of agonist potency versus compound 30” value is on record as above 10 fold.
`CCN1CCc2ccccc2C(C)C1` (stereo not drawn) [Compound 43]: the Emax in test [1] (setting [3]) was 7.6%.
